According to patent US11919886B2, “4,9-dioxo-4,9-dihydronaphtho[2,3-B]furan-3-carboxamide derivatives and uses thereof for treating proliferative diseases and infectious diseases” (Academia Sinica, priority 2016, dated 2024):

Experiments:
H1975 cell line = test: Sulforhodamine B colorimetric (SRB) assay, H1975; details: Homo sapiens, NCI-H1975, 72 h, H1975 cell line, SRB assay, 72 hours
[1] = system: Breast Cancer Cells (MDA-MB231); test: Cell viability by Cell-TiterGlo; assay type: cell-based; details: Homo sapiens, MDA-MB-231, 48 h, two days, read-out: % of the activities in the presence of ~10 μM compound, Breast Cancer Cells (MDA-MB231)
Procedure: (§1) Compound 1 and its analogues shown in Table 6 below were tested for their activities on cancer cells and bacterial cells using assays described herein. H1975, MDA-MB231, and MCF7 cells were incubated in the presence of the compounds in cell growth medium containing 10% fetal bovine serum for two days in a mammalian cell culture incubatoe. Cell viability were monitored by using Cell-TiterGlo. Staphylococcus aureus and Escherichia coli were incubated in the presence of the compounds in Muller-Hinton broth for 16-24 hours in a 37° C. incubator. Bacterial growth was monitored by using Alamar Blue (Invitrogen).

[2] = system: Breast Cancer Cells (MCF); test: Cell viability by Cell-TiterGlo; assay type: cell-based; details: Homo sapiens, 48 h, two days, read-out: % of the activities in the presence of ~10 μM compound, Breast Cancer Cells (MCF)
Procedure: as §1

[3] = system: Lung Cancer Cells (H1975); test: Cell viability by Cell-TiterGlo; assay type: cell-based; details: Homo sapiens, NCI-H1975, 48 h, two days, read-out: % of the activities in the presence of ~10 μM compound, Lung Cancer Cells (H1975)
Procedure: as §1

Staphylococcus aureus = test: Bacterial growth by Alamar Blue in Muller-Hinton broth; assay type: cell-based; details: ~10 μM, 16-24 hours, Alamar Blue, read-out: % of the activities in the presence of ~10 μM compound, Staphylococcus aureus
Procedure: as §1

Escherichia coli = test: as above; assay type: cell-based; details: 16-24 hours, read-out: % of the activities in the presence of ~10 μM compound, Escherichia coli
Procedure: as §1

SMILES	IC50 (H1975 cell line) [nM]	melting point [°C]	viability at 10 µM [1] [%]	viability at 10 µM [2] [%]	viability at 10 µM [3] [%]	activity at 10 µM (Staphylococcus aureus) [%]	activity at 10 µM (Escherichia coli) [%]
Cc1oc2c(c1C(=O)NCCn1ccnc1)C(=O)c1ccccc1C2=O [Compound 5, N-(2-(1H-imidazol-1-yl)ethyl)-2-methyl-4,9-dioxo-4,9-dihydronaphtho [2,3-b]furan-3-carboxamide]	280	–	–	–	–	–	–
O=C1c2ccccc2C(=O)c2c1oc(-c1ccccc1)c2C(=O)NCCCn1ccnc1 [Compound 9, N-(3-(1H-imidazol-1-yl)propyl)-4,9-dioxo-2-phenyl-4,9-dihydronaphtho[2,3-b]furan-3-carboxamide]	826	–	–	–	–	–	–
CC(C)c1oc2c(c1C(=O)NCCCn1ccnc1)C(=O)c1ccccc1C2=O [Compound 10, N-(3-(1H-imidazol-1-yl)propyl)-2-isopropyl-4,9-dioxo-4,9-dihydronaphtho[2,3-b]furan-3-carboxamide]	260	–	–	–	–	–	–
CCc1oc2c(c1C(=O)NCCCn1ccnc1)C(=O)c1ccccc1C2=O [Compound 11, N-(3-(1H-imidazol-1-yl)propyl)-2-ethyl-4,9-dioxo-4,9-dihydronaphtho[2,3-b]furan-3-carboxamide]	288	–	–	–	–	–	–
Cc1oc2c(c1C(=O)NCCCn1cccc1)C(=O)c1ccccc1C2=O [Compound 12, N-(3-(1H-pyrrol-1-yl)propyl)-2-methyl-4,9-dioxo-4,9-dihydronaphtho[2,3-b]furan-3-carboxamide]	918	143.5 to 150.7	–	–	–	–	–
Cc1oc2c(c1C(=O)NCCCCn1ccnc1)C(=O)c1ccccc1C2=O [Compound 13, N-(4-(1H-imidazol-1-yl)butyl)-2-methyl-4,9-dioxo-4,9-dihydronaphtho[2,3-b]furan-3-carboxamide]	250	158.6 to 164.1	–	–	–	–	–
Cc1oc2c(c1C(=O)NCCCCc1ccccc1)C(=O)c1ccccc1C2=O [Compound 17, 2-Methyl-4,9-dioxo-N-(4-phenylbutyl)-4,9-dihydronaphtho[2,3-b]furan-3-carboxamide]	> 10000	151.4 to 152.7	–	–	–	–	–
Cc1oc2c(c1C(=O)NCCCN1CCCC1)C(=O)c1ccccc1C2=O [Compound 18, 2-Methyl-4,9-dioxo-N-(3-(pyrrolidin-1-yl)propyl)-4,9-dihydronaphtho[2,3-b]furan-3-carboxamide]	24	–	–	–	–	–	–
Cc1oc2c(c1C(=O)NCCCN1CCOCC1)C(=O)c1ccccc1C2=O [Compound 20, 2-Methyl-N-(3-morpholinopropyl)-4,9-dioxo-4,9-dihydronaphtho[2,3-b]furan-3-carboxamide]	80	–	–	–	–	–	–
Cc1[nH]c2c(c1C(=O)NCCCn1ccnc1)C(=O)c1ccccc1C2=O [Compound 45, N-(3-(1H-imidazol-1-yl)propyl)-2-methyl-4,9-dioxo-4,9-dihydro-1H-benzo[f]indole-3-carboxamide]	8730	–	–	–	–	–	–
O=C(NCCN1CCOCC1)c1coc2c1C(=O)c1ccccc1C2=O [Compound 00053891400]	–	–	12.2	6.1	4	> 100	> 100
Cc1oc2c(c1C(=O)N1CCC(C)CC1)C(=O)c1ccccc1C2=O [Compound 00054506228]	–	–	54.4	13.6	4.6	65.4	> 100
COCCNC(=O)c1c(C)oc2c1C(=O)c1ccccc1C2=O [Compound 00054811255]	–	–	13.4	6.5	4.2	> 100	> 100
Cc1oc2c(c1C(=O)NC(C)(C)C)C(=O)c1ccccc1C2=O [Compound 00055422098]	–	–	69.8	35	3.7	> 100	> 100
CCCCNC(=O)c1c(C)oc2c1C(=O)c1ccccc1C2=O [Compound 00055422996]	–	–	20.9	6.9	4.3	> 100	> 100
Cc1oc2c(c1C(=O)NCCC(C)C)C(=O)c1ccccc1C2=O [Compound 00055727872]	–	–	72	44.3	4.2	> 100	> 100
Cc1oc2c(c1C(=O)N1CCOCC1)C(=O)c1ccccc1C2=O [Compound 00056034607]	–	–	61.2	12.9	4.4	75.8	> 100
